Results as given in patent US8728515B2, “Adjuvants for use in vaccination” (Bangor University, priority 2008, dated 2014).

Tests used:
[1] = test system: airway CD11c+ cells; assay: Gene transcription profiling of airway CD11c+ cells (RT-qPCR on broncho-alveolar lavage cells after intratracheal liposomes); type: in vivo, mouse; conditions: liposomes intratracheally, after 48 hours
Experimental: (§1) Female C57BL/6J mice were purchased from Janvier and housed under specific pathogen free conditions in individually ventilated cages and fed ad libitum. Mice were 8-12 weeks old at the start of experiments.
(§2) Briefly, the compounds were mixed with phosphatidylcholine (Sigma) in chloroform. The chloroform was evaporated and the lipids recovered in sterile saline. After ultrasound sonication and vortexing, samples of 25 μg mycolic acids/100 μl/mouse were administered intratracheally. A liposome control was prepared similarly, but without the addition of any mycolic acid compound.
Airway CD11c^+ cells include alveolar macrophages and dendritic cells, which are professional phagocytes and the most important cell types in the early recognition of non-self threats to the airways. Next to mounting an immediate appropriate innate immune response to these threats, CD11c^+ cells alert and instruct adaptive immune responses by means of 3 different signals: antigen-presentation, surface expression of T-cell co-stimulatory molecules and secretion of instruction cytokines. Whereas dendritic cells migrate to the draining lymph nodes in order to initiate a peripheral antigen-specific immune response, alveolar macrophages remain in the airways to further control local inflammation, but also to locally attract and orchestrate the acquired immune response by lymphocytes.
In order for a locally applied vaccine to be effective, safe adjuvants that give the appropriate signal to CD11c^+ cells are needed to both increase the immunogenicity of the vaccine and direct the type of the acquired immune response. […] After 48 hours, the mice were sacrificed and broncho-alveolar lavage performed to measure the CD11c^+-cell gene transcription by RT-qPCR.

[2] = test system: C57BL/6 mice; assay: Inflammatory cell infiltration to the airways and lung tissue damage after intratracheal mycolic acid liposomes; type: in vivo; conditions: liposomes intratracheally, 25 μg mycolic acids/100 μl/mouse, after 48 hours
Experimental: as §1, §2
In order to be considered safe for human administration, compounds should preferably cause as little local inflammation or resulting tissue changes as possible.
After 48 hours, mice were sacrificed and a broncho-alveolar lavage (BAL) was performed to measure the airway cell types and numbers by flowcytometry. Increased cell numbers and the appearance of granulocytes (mainly neutrophils) in the BAL-fluid are indicative for cell recruitment to the airways as result of an inflammatory reaction.
Lavaged lungs were ectomised to allow for histo-pathological examination of the lung tissue. A haematoxylin and eosin staining of the paraffin lung sections was followed by a thorough examination by a skilled pathologist who scored the sections according to the following criteria in a double-blinded manner: […]

Question: For `CCCCCCCCCCCCCCCCCCCCCCCC[C@@H](C(=O)O)[C@H](O)CCCCCCCCCCCCCCC[C@@H]1C[C@@H]1CCCCCCCCCCCCCCCCCCC(=O)[C@@H](C)CCCCCCCCCCCCCCCCCC` (single isomer, unassigned) [Example 3], which melting point is on record?
Answer: 66 to 68 °C

Question: Which “type of macrophage activation (iNOS = classical, Fizz1 = alternative marker)” value ([1]; alveolar macrophages) does the source give for `CCCCCCCCCCCCCCCCCCCCCCCC[C@@H](C(=O)O)[C@H](O)CCCCCCCCCCCCCCCCC[C@@H]1CC1CCCCCCCCCCCCCCCC[C@@H](OC)[C@@H](C)CCCCCCCCCCCCCCCCCC` (some centres unmarked) [Compound 6] here?
Answer: mixed type of activation

Question: What about the “KC (CXCL1) expression” value [1] of the same molecule?
Answer: increased

Question: And the “MCP-1 (CCL2) expression” value [1]?
Answer: enhance MCP-1 expression even to a greater extend than crude-MA

Question: What about the “expression of IL-12p40” value [1] of the same molecule?
Answer: strongly stimulate

Question: What about the “induction of expression of IL-10” value [1] of the same molecule?
Answer: maintained

Question: And the “expression of the inflammatory cytokines TNF-alpha and IL-6” value ([1]; compared with crude-MA)?
Answer: less pronounced or absent

Question: For `CCCCCCCCCCCCCCCCCCCCCCCC[C@@H](C(=O)O)[C@H](O)CCCCCCCCCCCCCCCC[C@H]1C[C@@H]1[C@@H](C)CCCCCCCCCCCCCCCCCCC(=O)C(C)CCCCCCCCCCCCCCCCCC` (some centres unmarked) [Compound 4], which “lung tissue changes (histo-pathological examination of lung sections)” value [2] is on record?
Answer: did not cause any significant lung tissue changes
